Test results taken from PubChem BioAssay AID1963977 (Molecular Pharmacology Branch, DTP, NCI, 2024).

System: 624824-186-R-J3-PDC multicell spheroids, viability
Assay: Anticancer human tumor 624824-186-R-J3-PDC patient-derived colon adenocarcinoma cell line growth inhibition [PI3K]
Conditions: for IC50: curve of first compound; for viability, T/C: stronger effect = lower value
Outline: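 Stroma-containing spheroids: tumor line, pooled-donor HUVEC, hMSC. Treatments: targeted agents with PI3K inhibitors. Dosing: clinically relevant, half-log spacing, 10 microM ceiling without known Cmax. Read-out: cell viability.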

[1] = second compound 0.0316 µM, first compound 0.0316 µM
[2] = second compound 0.0316 µM, first compound 0.1 µM
[3] = second compound 0.1 µM, first compound 0.0316 µM
[4] = second compound 0.1 µM, first compound 0.1 µM
[5] = second compound 0.316 µM, first compound 0.0316 µM
[6] = second compound 0.316 µM, first compound 0.1 µM
[7] = second compound 1 µM, first compound 0.0316 µM
[8] = second compound 1 µM, first compound 0.1 µM
[9] = second compound 3.16 µM, first compound 0.0316 µM
[10] = second compound 3.16 µM, first compound 0.1 µM
[11] = second compound 10 µM, first compound 0.0316 µM
[12] = second compound 10 µM, first compound 0.1 µM
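Note: spheroids exposed to agents for seven days before luminescence read.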
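Throughout, for viability, T/C: luminescent signal used as a stand-in for spheroid viability; percent viability relative to DMSO vehicle control wells taken as 100%.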

## C[C@@H](NC(=O)c1ncnc(N)c1Cl)c1ncc(C(=O)Nc2cc(C(F)(F)F)c(Cl)cn2)s1 + CC(Nc1ncnc2nc[nH]c12)c1cc2cccc(Cl)c2c(=O)n1-c1ccccc1
Second compound 0.0316 µM
  IC50: > 10 µM
Second compound 0.1 µM
  IC50: > 10 µM
Second compound 0.316 µM
  IC50: > 10 µM
Second compound 1 µM
  IC50: > 10 µM
Second compound 3.16 µM
  IC50: > 10 µM
Second compound 10 µM
  IC50: > 10 µM
[1]
  viability, T/C: 115%
[2]
  viability, T/C: 100%
Second compound 0.0316 µM, first compound 0.316 µM
  viability, T/C: 107%
Second compound 0.0316 µM, first compound 1 µM
  viability, T/C: 100%
Second compound 0.0316 µM, first compound 3.16 µM
  viability, T/C: 99.8%
Second compound 0.0316 µM, first compound 10 µM
  viability, T/C: 94.4%
[3]
  viability, T/C: 100%
[4]
  viability, T/C: 101%
Second compound 0.1 µM, first compound 0.316 µM
  viability, T/C: 104%
Second compound 0.1 µM, first compound 1 µM
  viability, T/C: 107%
Second compound 0.1 µM, first compound 3.16 µM
  viability, T/C: 101%
Second compound 0.1 µM, first compound 10 µM
  viability, T/C: 107%
[5]
  viability, T/C: 96.8%
[6]
  viability, T/C: 105%
Second compound 0.316 µM, first compound 0.316 µM
  viability, T/C: 92.5%
Second compound 0.316 µM, first compound 1 µM
  viability, T/C: 96.1%
Second compound 0.316 µM, first compound 3.16 µM
  viability, T/C: 98.8%
Second compound 0.316 µM, first compound 10 µM
  viability, T/C: 97.6%
[7]
  viability, T/C: 99.2%
[8]
  viability, T/C: 94.4%
Second compound 1 µM, first compound 0.316 µM
  viability, T/C: 110%
Second compound 1 µM, first compound 1 µM
  viability, T/C: 92.8%
Second compound 1 µM, first compound 3.16 µM
  viability, T/C: 94.8%
Second compound 1 µM, first compound 10 µM
  viability, T/C: 83%
[9]
  viability, T/C: 97.1%
[10]
  viability, T/C: 102%
Second compound 3.16 µM, first compound 0.316 µM
  viability, T/C: 104%
Second compound 3.16 µM, first compound 1 µM
  viability, T/C: 94.3%
Second compound 3.16 µM, first compound 3.16 µM
  viability, T/C: 93.8%
Second compound 3.16 µM, first compound 10 µM
  viability, T/C: 73.3%
[11]
  viability, T/C: 100%
[12]
  viability, T/C: 94.7%
Second compound 10 µM, first compound 0.316 µM
  viability, T/C: 96.3%
Second compound 10 µM, first compound 1 µM
  viability, T/C: 83%
Second compound 10 µM, first compound 3.16 µM
  viability, T/C: 82.2%
Second compound 10 µM, first compound 10 µM
  viability, T/C: 61%

## Cn1ncnc1[C@H]1c2n[nH]c(=O)c3cc(F)cc(c23)N[C@@H]1c1ccc(F)cc1 + CC(Nc1ncnc2nc[nH]c12)c1cc2cccc(Cl)c2c(=O)n1-c1ccccc1
Second compound 0.0316 µM
  IC50: > 0.1 µM
Second compound 0.1 µM
  IC50: > 0.1 µM
Second compound 0.316 µM
  IC50: > 0.1 µM
Second compound 1 µM
  IC50: > 0.1 µM
Second compound 3.16 µM
  IC50: > 0.1 µM
Second compound 10 µM
  IC50: > 0.1 µM
Second compound 0.0316 µM, first compound 0.000316 µM
  viability, T/C: 104%
Second compound 0.0316 µM, first compound 0.001 µM
  viability, T/C: 101%
Second compound 0.0316 µM, first compound 0.00316 µM
  viability, T/C: 135%
Second compound 0.0316 µM, first compound 0.01 µM
  viability, T/C: 104%
[1]
  viability, T/C: 116%
[2]
  viability, T/C: 117%
Second compound 0.1 µM, first compound 0.000316 µM
  viability, T/C: 104%
Second compound 0.1 µM, first compound 0.001 µM
  viability, T/C: 96.3%
Second compound 0.1 µM, first compound 0.00316 µM
  viability, T/C: 107%
Second compound 0.1 µM, first compound 0.01 µM
  viability, T/C: 102%
[3]
  viability, T/C: 95.9%
[4]
  viability, T/C: 120%
Second compound 0.316 µM, first compound 0.000316 µM
  viability, T/C: 99.2%
Second compound 0.316 µM, first compound 0.001 µM
  viability, T/C: 108%
Second compound 0.316 µM, first compound 0.00316 µM
  viability, T/C: 110%
Second compound 0.316 µM, first compound 0.01 µM
  viability, T/C: 106%
[5]
  viability, T/C: 114%
[6]
  viability, T/C: 118%
Second compound 1 µM, first compound 0.000316 µM
  viability, T/C: 98.5%
Second compound 1 µM, first compound 0.001 µM
  viability, T/C: 105%
Second compound 1 µM, first compound 0.00316 µM
  viability, T/C: 105%
Second compound 1 µM, first compound 0.01 µM
  viability, T/C: 101%
[7]
  viability, T/C: 111%
[8]
  viability, T/C: 111%
Second compound 3.16 µM, first compound 0.000316 µM
  viability, T/C: 109%
Second compound 3.16 µM, first compound 0.001 µM
  viability, T/C: 107%
Second compound 3.16 µM, first compound 0.00316 µM
  viability, T/C: 109%
Second compound 3.16 µM, first compound 0.01 µM
  viability, T/C: 110%
[9]
  viability, T/C: 104%
[10]
  viability, T/C: 112%
Second compound 10 µM, first compound 0.000316 µM
  viability, T/C: 97.8%
Second compound 10 µM, first compound 0.001 µM
  viability, T/C: 93%
Second compound 10 µM, first compound 0.00316 µM
  viability, T/C: 101%
Second compound 10 µM, first compound 0.01 µM
  viability, T/C: 98.2%
[11]
  viability, T/C: 90.1%
[12]
  viability, T/C: 95.1%
